Source: patent US20220226342A1, “COMPOSITIONS AND METHODS OF TREATING LIVER CANCERS” (The Johns Hopkins University, priority 2019, published 2022)

What was measured:
40 HCC PDO lines = test: 10 μM drug screening, cell viability at 96 h (CellTiter-Glo); type: cell-based, human; conditions: one HCC PDO line, 96 h
Procedure: FIG. 2A-2E. 10 μM drug screening and IC50 calculation across 40 PDOs from 20 HCC patients. (2A). 10 μM drug screening of omacetaxine and sorafenib, regorafenib, lenvatinib and cabozantinib on 40 PDOs derived from 20 HCC patients. X axis—the 40 PDO lines, Y axis—Cell viability. (2B). IC50 curve of 40 PDO lines, x-axis—omacetaxine dose, Y axis—Relative cell viability. (2C). […] (2D). IC50 distribution of 40 HCC PDOs. X axis—PDO lines, Y axis—IC50 number of omacetaxine for each PDO.
As readout of drug effectiveness, cell viability at 96 hours (h) was measured. White light microscopy images of one of the HCC PDO lines across 129 drugs was prepared. In FIG. 2E, each panel represents the image collected at 96 hours after treatment with each drug, at a concentration of 10 μM. […] To quantify survival, we implemented CellTiter-Glo, a luminescent cell viability assay. A total of 129 readings (one for each drug) was obtained for each of the 40 PDO lines, for a total of […] data points. […] Next, the inventors contrasted the survival of the […] HCC PDO lines when treated with omacetaxine versus current FDA approved drugs for HCC.

HCC patients [1] = conditions: clinical trial; cited from earlier work
HCC patients [2] = conditions: cited from earlier work

In the case of `CC(C)C[C@H](NC(=O)[C@H](Cc1ccccc1)NC(=O)c1cnccn1)B(O)O` [bortezomib], the “white light microscopy image of organoids” value (40 HCC PDO lines) is reported as “induce cell destruction”.
In the case of `COc1cc2nccc(Oc3ccc(NC(=O)NC4CC4)c(Cl)c3)c2cc1C(N)=O` [lenvatinib], the “efficacy compared to sorafenib” value (HCC patients [1]) is listed as “non-inferior efficacy”.
For `CNC(=O)c1cc(Oc2ccc(NC(=O)Nc3ccc(Cl)c(C(F)(F)F)c3)cc2)ccn1` [sorafenib], the “median increase in life span” value (HCC patients [2]; HCC patients) is given as 9.2 months, the “median survival of HCC patients” value (HCC patients [2]; SHARP trial, extended from 7.9) is given as 10.7 months and the “white light microscopy image of organoids” value (40 HCC PDO lines) is given as “allow unrestricted organoid growth”.
